Measurements as given in US7115639B2, “Pyrrolidine oxadiazole- and thiadiazole oxime derivatives being oxytocin receptor antagonists” (Applied Research Systems ARS Holding N.V., priority 2001, dated 2006).
pIC50: −log10 of the molar value.

Tests used:
hOT receptor = molecular target: T1, hOT receptor (Homo sapiens, UniProt P30559); assay: In vitro competition binding assay with scintillating proximity assay; settings: [125I]-OVTA competition; membranes from HEK293EBNA cells expressing the hOT receptor; read-out: Binding affinity human OT-R IC50
T1 construct: expressed in transfected cells; host or cells: HEK293EBNA
T1 sequence (P30559 1-389): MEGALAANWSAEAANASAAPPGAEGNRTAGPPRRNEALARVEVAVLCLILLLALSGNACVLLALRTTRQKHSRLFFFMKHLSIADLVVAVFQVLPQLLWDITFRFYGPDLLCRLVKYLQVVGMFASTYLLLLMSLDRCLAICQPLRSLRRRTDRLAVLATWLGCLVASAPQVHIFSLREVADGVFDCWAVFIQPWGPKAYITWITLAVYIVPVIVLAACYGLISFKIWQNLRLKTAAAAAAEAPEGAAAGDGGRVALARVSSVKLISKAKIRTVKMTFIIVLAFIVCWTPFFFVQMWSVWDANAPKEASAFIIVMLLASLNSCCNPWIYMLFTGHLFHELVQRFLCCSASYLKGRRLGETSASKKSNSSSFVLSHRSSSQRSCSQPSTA
Procedure: a) In Vitro Competition Binding Assay with Scintillating Proximity Assay (Pharmaceutical Manufacturing International, 1992, p. 49–53 by Cook, N. D. et al)
This assays allows to determine the affinity of the test compounds for the OT receptor. Membranes from HEK293EBNA cells expressing the hOT receptor were resuspended in buffer containing 50 mM Tris-HCl, pH 7.4, 5 mM MgCl2 and 0.1% BSA (w/v). The membranes (2–4 μg) were mixed with 0.1 mg wheat-germ aglutinin (WGA) SPA bead (type A) and 0.2 nM of the radiolabel [^125I]-OVTA (OVTA being Ornithin Vasoactive and is an analogue of OT for competition binding experiments). Non-specific binding was determined in the presence of 1 μM Oxytocin. The total assay volume was 100 μl. The plates (Corning® NBS plate) were incubated at room temperature for 30 min and counted on a Mibrobeta plate counter. The tests compounds were used in concentrations of 30 μM, 10 μM, 1 μM, 300 nM, 100 nM, 10 nM, 1 nM, 100 pM, 10 pM. The competition binding data were analysed using the iterative, non-linear, curve-fitting program, “Prism”.
The binding affinities to the oxytocin receptor of the pyrrolidine derivatives claimed in the formula I were assessed using the above described in vitro biological assay. The values refer to the binding affinity (IC50; μM) of the example compounds according to formula I to the Oxytocin receptor.

hOT-R = molecular target: T2, hOT-R (Homo sapiens, UniProt P30559); assay: Functional assay No. 1: inhibition of Ca2+-mobilization by FLIPR; type: cell-based; settings: HEK cells, OT 40 nM
T2 construct: expressed in transfected cells; host or cells: HEK (Human Embryonic Kidney) cells
T2 sequence (P30559 1-389): T1 sequence (P30559 1-389)
From the text: b) Functional Assay No. 1: Inhibition of Ca^2+-mobilization by FLIPR (Fluorescent Imaging Plate Reader)
FLIPR is a machine for fluorescence imaging using a laser that is capable of illuminating a 96-well plate and a means of simultaneously reading each well thus enabling rapid measurements on a large number of samples.
This assay intends to show the inhibition of the OT/OT-R mediated calcium mobilisation—being necessary to cause uterine contractions—by using test compounds of formula (I).
Preparing the plates: FLIPR-plates were pre-coated with PLL (Poly-L-Lysine) 10 μg/ml+0.1% gelatine to attach the HEK (Human Embryonic Kidney) cells for 30 min up to 2 days at 37° C. The cells were plated out into 96-well plates (60000 cells/well).
Labelling with fluo-4: 50 μg fluo-4 (fluorescent marker) were dissolved in 20 μl pluronic acid (20% in DMSO). The dissolved fluo-4 was then diluted in 10 ml DMEM (Dubecco's Minimal Essential Medium-F12 medium without FCS (Fetal Calf Serum). The medium was removed from the plates, followed by one wash with DMEM-F12 medium. Now, 100 μl of the DMEM-F12 medium containing fluo-4 were added and the cells incubated for 1–1.5 h (CHO-cells), and 1.5–2 h (HEK-cells). The cells now contain the fluorescent marker.
Buffer: 145 mM NaCl, 5 mM KCl, 1 mM MgCl2, 10 mM Hepes, 10 mM Glucose, EGTA (Ethylene-bis oxyethylene nitrilo tetraacetic acid). Adjust to pH 7.4.
Performance of the assay: A minimum of 80 μl/well of antagonists (5×) in the above buffer (1×) were prepared (96-well plates). The antagonists were added to the well-plates at different concentrations (30 μM, 10 μM, 1 μM, 300 nM, 100 nM, 10 nM, 1 nM, 100 pM, 10 pM).
OT is added at a concentration of 40 nM.
The fluorescent market being sensitive to the amount of Ca^2+ mobilized within the cell may be quantified by the FLIPR machine.
The activities of the pyrrolidine derivatives according to formula I were assessed using the above described in vitro biological assay. The values refer to the capacity of the example compounds according to formula I to effectively antagonize oxytocin-induced intracellular Ca^2+-mobilization mediated by the Oxytocin receptor.

[1] = system: oxytocin-induced uterine contractions in the rat; assay: In vivo model for inhibition of uterine contractions
[2] = system: oxytocin-induced uterine contractions in the rat; assay: as above; remark: listed apart in the source
Procedure: d) In Vivo Model for Inhibition of Uterine Contractions
The assay intends to show the biological effect of tested compounds in an in vivo model of preterm labor, premature birth.
Non-pregnant Charles River CD(SD) BR female rats (9–10 weeks old, 200–250 g) were treated at 18 and 24 hours before the experiment with 250 μg/kg, i.p. diethylstilbestrol (DES). For the assay, the animal was anaesthetised by urethane (1.75 g/kg, i.p.) and placed on an homeothermic operating table. The trachea was isolated and cannulated with a suitable polyethylene (PE) tubing. A midline incision at the hypogastrium level was made and one uterine horn exposed, its cephalic end cannulated with a PE240 tubing and, after filling the internal cavity with 0.2 ml of sterile physiological saline, connected to a “Gemini” amplifying/recording system via a P231D Gould Statham pressure transducer, in, order to measure said pressure. For the i.v. route of administration of the test compounds, one jugular vein was isolated and cannulated with a PE60 tubing connected to a butterfly needle to allow the administration by a dispensing syringe. In the case of intraduodenal administration of the test compounds, the duodenum was isolated and similarly cannulated through a small incision in its wall. One carotid artery was also isolated and cannulated with PE60 catheter and connected to a suitable syringe for blood sample collection (see below). After a stabilization period, the same dose of oxytocin was repeatedly injected intravenously at 30-min intervals. […] Further injections of the same dose of oxytocin were then made for a suitable time after treatment to assess inhibitory effects of the compounds under study. The contractile response of the uterus to oxytocin was quantified by measuring the intrauterine pressure and the number of contractions.
A total of six animals is forming one group which is treated with a given test compound at a given concentration (see above).
The effect of the test compounds were evaluated by comparing pre- and post-treatment pressure values. In addition, at 2, 30, 90 and 210 minutes after test compound administration, a 0.5-ml blood sample was withdrawn from the cannulated carotid artery of each experimental animal. Plasma was obtained by standard laboratory procedure and the resulting samples were stored at −20° C.
The activities of the pyrrolidine derivatives claimed in the formula I were assessed using the above described in vivo biological assay. The values refer to the capacity of the example compound according to formula I to effectively antagonize oxytocin-induced uterine contractions in the rat.

Structure (SMILES) | pIC50 (hOT receptor) | pIC50 (hOT-R) | also measured
CO/N=C1\C[C@@H](c2nc(CCO)no2)N(C(=O)c2ccc(-c3ccccc3)cc2)C1 [Example 9 (3E), (3E,5S)-1-([1,1′-biphenyl]-4-ylcarbonyl)-5-[3-(2-hydroxyethyl)-1,2,4-oxadiazol-5-yl]-3-pyrrolidinone O-methyloxime] | – | – | melting point: 140.5 °C
CO/N=C1/C[C@@H](c2nc(C)no2)N(C(=O)c2ccc(-c3ccccc3C)cc2)C1 [(3Z,5S)-1-[(2′-methyl[1,1′-biphenyl]-4-yl)carbonyl]-5-(3-methyl-1,2,4-oxadiazol-5-yl)-3-pyrrolidinone O-methyloxime] | 8.05 | 8.40 | % Reduction of Uterine Contraction ([1]; Intravenous, NP3S 5 ml/kg infusion, 3 mg/kg): −58.0 ±5.9%; % Reduction of Uterine Contraction ([1]; Intravenous, NP3S, 7.5 ml/kg infusion, 30 mg/kg): −80.3 ± 5.1%; % Reduction of Uterine Contraction ([2]; Intravenous, NP3S 5 ml/kg infusion, 0.3 mg/kg): −21.5 ± 7.3%; % Reduction of Uterine Contraction ([2]; Intravenous, NP3S 5 ml/kg infusion, 1 mg/kg): −44.6 ± 7.1%; % Reduction of Uterine Contraction ([2]; Intravenous, NP3S 5 ml/kg infusion, 10 mg/kg): −67.2 ± 10.1%
CON=C1C[C@@H](c2nc(CCO)no2)N(C(=O)c2ccc(-c3ccccc3)cc2)C1 [(3EZ,5S)-1-([1,1′-biphenyl]-4-ylcarbonyl)-5-[3-(2-hydroxyethyl)-1,2,4-oxadiazol-5-yl]-3-pyrrolidinone O-methyloxime] | 7.96 | – | –
CON=C1C[C@@H](c2nc(C)no2)N(C(=O)c2ccc(-c3ccccc3)cc2)C1 [(3EZ,5S)-1-([1,1′-biphenyl]-4-ylcarbonyl)-5-(3-methyl-1,2,4-oxadiazol-5-yl)-3-pyrrolidinone O-methyloxime] | 7.06 | 8.40 | –
CO/N=C1/C[C@@H](c2noc(CN(C)C)n2)N(C(=O)c2ccc(-c3ccccc3)cc2)C1 [(3Z,5S)-1-([1,1′-biphenyl]-4-ylcarbonyl)-5-{5-[(dimethylamino)methyl]-1,2,4-oxadiazol-3-yl}-3-pyrrolidinone O-methyloxime] | – | – | % Reduction of Uterine Contraction ([1]; oral, NP3S, 1 mg/kg): −11.1 ± 1.3%; % Reduction of Uterine Contraction ([1]; oral, NP3S, 3 mg/kg): −42.1 ± 2.9%; % Reduction of Uterine Contraction ([2]; oral, NP3S, 10 mg/kg): −49.5 ± 6.1%; % Reduction of Uterine Contraction ([2]; oral, NP3S, 30 mg/kg): −74.4 ± 4.2%
CO/N=C1\C[C@@H](c2nc(C)no2)N(C(=O)c2ccc(-c3ccccc3C)cc2)C1 [(3E,5S)-1-[(2′-methyl[1,1′-biphenyl]-4-yl)carbonyl]-5-(3-methyl-1,2,4-oxadiazol-5-yl)-3-pyrrolidinone O-methyloxime] | 7.64 | – | –
CON=C1C[C@@H](c2noc(CNC(C)=O)n2)N(C(=O)c2ccc(-c3ccccc3)cc2)C1 [N-({3-[(2S,4EZ)-1-([1,1′-biphenyl]-4-ylcarbonyl)-4-(methoxyimino)pyrrolidinyl]-1,2,4-oxadiazol-5-yl}methyl)acetamide] | 8.52 | – | –
CON=C1C[C@@H](c2nc(C)no2)N(C(=O)c2ccc(-c3ccccc3Cl)cc2)C1 [(3EZ,5S)-1-[(2′-chloro[1,1′-biphenyl]-4-yl)carbonyl]-5-(3-methyl-1,2,4-oxadiazol-5-yl)-3-pyrrolidinone O-methyloxime] | – | 9.00 | –
CON=C1C[C@@H](c2noc(C3CCN(C(C)=O)CC3)n2)N(C(=O)c2ccc(-c3ccccc3)cc2)C1 [(3EZ,5S)-5-[5-(1-acetyl-4-piperidinyl)-1,2,4-oxadiazol-3-yl]-1-([1,1′-biphenyl]-4-ylcarbonyl)-3-pyrrolidinone O-methyloxime] | 8.70 | – | –

Second part, led by results:

pIC50 (hOT receptor) | pIC50 (hOT-R) | Structure (SMILES) | also measured
8.15 | – | CON=C1C[C@@H](c2nc(CC(=O)N3CCCC3)no2)N(C(=O)c2ccc(-c3ccccc3)cc2)C1 [(3EZ,5S)-1-([1,1′-biphenyl]-4-ylcarbonyl)-5-{3-[2-oxo-2-(1-pyrrolidinyl)ethyl]-1,2,4-oxadiazol-5-yl}-3-pyrrolidinone O-methyloxime] | –
8.22 | – | CCC(O)c1noc([C@@H]2CC(=NOC)CN2C(=O)c2ccc(-c3ccccc3)cc2)n1 (mixture of isomers) [(3EZ,5S)-1-([1,1′-biphenyl]-4-ylcarbonyl)-5-{3-[(1RS)-1-hydroxypropyl]-1,2,4-oxadiazol-5-yl}-3-pyrrolidinone O-methyloxime] | –
7.68 | 7.92 | CON=C1C[C@@H](c2nc(C)no2)N(C(=O)c2ccc(-c3ccccc3C)cc2)C1 [(3EZ,5S)-1-[(2′-methyl[1,1′-biphenyl]-4-yl)carbonyl]-5-(3-methyl-1,2,4-oxadiazol-5-yl)-3-pyrrolidinone O-methyloxime] | –
6.68 | 6.66 | CON=C1C[C@@H](c2nnco2)N(C(=O)c2ccc(-c3ccccc3)cc2)C1 [(3EZ,5S)-1-([1,1′-biphenyl]-4-ylcarbonyl)-5-(1,3,4-oxadiazol-2-yl)-3-pyrrolidinone O-methyloxime] | –
